Source: patent US20260130933A1, “PHARMACEUTICAL COMPOSITION FOR PREVENTION OR TREATMENT OF NEPHROPATHY AND/OR DIABETES MELLITUS, COMPRISING ENAVOGLIFLOZIN” (DAEWOONG PHARMACEUTICAL CO., LTD., priority 2022, published 2026)

Assay: Example 1: phase 3 trial, enavogliflozin 0.3 mg once a day as monotherapy vs placebo for 24 weeks in patients with type 2 diabetes (HbA1c, FPG, C-peptide, body weight, lipids, blood pressure, HOMA, UACR, UGCR, adiponectin, leptin, safety)
Type: in vivo, human
Protocol: When a subject voluntarily gave written consent to participate in this clinical trial, a screening test was conducted. […] However, when the administration of a hypoglycemic agent was interrupted before the clinical trial Visit 1 (screening), at least an 8-week washout period, including the discontinuation period, was required, and during this period, a stable diet and exercise program was followed. Naïve patients were screened without a separate washout period, and the criteria for naïve patients were defined as patients who had not been administered hypoglycemic agents within 24 weeks prior to the date of obtaining written consent. […] In addition, they were instructed to maintain regular exercise and dietary control starting from 8 weeks prior to screening without changing their daily life patterns during the clinical trial period.

OC[C@H]1O[C@@H](c2cc(Cc3ccc(C4CC4)cc3)c(Cl)c3c2CCO3)[C@H](O)[C@@H](O)[C@@H]1O [Enavogliflozin, (2S,3R,4R,5S,6R)-2-(7-chloro-6 (4-cyclopropylbenzyl)-2,3-dihydrobenzofuran-4-yl)-6-(hydroxymethyl)tetrahydro-2H-pyran-3,4,5-triol]
fasting C-peptide, Mean (SD) (week 6): 0.66 ng/mL | systolic blood pressure change from baseline, LS mean (week 6): −5.38 mmHg | systolic blood pressure change from baseline, Mean (week 6): −4.81 mmHg | total cholesterol change from baseline, LS mean (week 6): 5.76 mg/dL | total cholesterol change from baseline, Mean (week 6): 5.75 mg/dL | total cholesterol, Mean (week 6): 166.11 mg/dL | triglycerides change from baseline, LS mean (week 6): -5.05 mg/dL | triglycerides change from baseline, Mean (week 6): -1.21 mg/dL | triglycerides, Mean (week 6): 116.13 mg/dL | FPG change from baseline, LS mean difference (week 6, vs placebo): -26.91 mg/dL | HDL-C change from baseline, LS mean difference (week 6, vs placebo): 1.89 mg/dL | HOMA-IR change from baseline, LS mean difference (week 6, vs placebo): −1.81 | HOMA-β change from baseline, LS mean difference (week 6, vs placebo): 3.30 | HbA1c change from baseline, LS mean difference (week 6, vs placebo): −0.52 % p | LDL-C change from baseline, LS mean difference (week 6, vs placebo): 0.64 mg/dL | Odds ratio for achieving HbA1c<6.5% (week 6, vs placebo): 3.29 | Odds ratio for achieving HbA1c<7% (week 6, vs placebo): 6.55 | Odds ratio for achieving therapeutic response (week 6, vs placebo): 12.84 | UACR change from baseline, LS mean difference (week 6, vs placebo): 7.96 g/kg | UGCR change from baseline, LS mean difference (week 6, vs placebo): 52.97 mg/mg | adiponectin change from baseline, LS mean difference (week 6, vs placebo): 0.26 µg/mL | body weight change from baseline, LS mean difference (week 6, vs placebo): -1.45 kg | diastolic blood pressure change from baseline, LS mean difference (week 6, vs placebo): −2.43 mmHg | fasting C-peptide change from baseline, LS mean difference (week 6, vs placebo): -0.11 ng/mL | leptin change from baseline, LS mean difference (week 6, vs placebo): -2.89 ng/mL | systolic blood pressure change from baseline, LS mean difference (week 6, vs placebo): −4.07 mmHg | total cholesterol change from baseline, LS mean difference (week 6, vs placebo): 1.95 mg/dL | triglycerides change from baseline, LS mean difference (week 6, vs placebo): -17.69 mg/dL | HbA1c change from baseline, LS mean difference (week 6, vs placebo, listed as enavogliflozin): -0.52 % p | Body weight, Mean (week 12): 66.12 kg | Diastolic blood pressure, Mean (week 12): 72.83 mmHg | FPG change from baseline, LS mean (SE) (week 12): −30.66(2.93) mg/dL | FPG change from baseline, Mean (SD) (week 12): −29.34(20.90) mg/dL | FPG, Mean (SD) (week 12): 111.66(13.55) mg/dL | HDL-C change from baseline, LS mean (week 12): 2.35 mg/dL | HDL-C change from baseline, Mean (week 12): 2.22 mg/dL | HDL-C, Mean (week 12): 54.14 mg/dL | HbA1c change from baseline, LS mean (SE) (week 12): −0.84(0.07) % p | HbA1c change from baseline, Mean (SD) (week 12): −0.80(0.55) % p | HbA1c, Mean (SD) (week 12): 6.84(0.53) % | LDL-C change from baseline, LS mean (week 12): -2.31 mg/dL | LDL-C change from baseline, Mean (week 12): -0.09 mg/dL | LDL-C, Mean (week 12): 95.38 mg/dL | Subjects achieving HbA1c target of <6.5% (week 12): 22(26.83) % | Subjects achieving HbA1c target of <7% (week 12): 54(65.85) % | Subjects achieving therapeutic glycemic response (HbA1c change >0.5% or HbA1c<7%) (week 12): 70(85.37) % | Systolic blood pressure, Mean (week 12): 122.06 mmHg | body weight change from baseline, LS mean (week 12): -2.59 kg | body weight change from baseline, Mean (week 12): -2.65 kg | diastolic blood pressure change from baseline, LS mean (week 12): −3.82 mmHg | diastolic blood pressure change from baseline, Mean (week 12): −3.40 mmHg | fasting C-peptide, Mean (SD) (week 12): 0.64 ng/mL | systolic blood pressure change from baseline, LS mean (week 12): −6.37 mmHg | systolic blood pressure change from baseline, Mean (week 12): −5.78 mmHg | total cholesterol change from baseline, LS mean (week 12): 4.75 mg/dL | total cholesterol change from baseline, Mean (week 12): 5.99 mg/dL | total cholesterol, Mean (week 12): 167.40 mg/dL | triglycerides change from baseline, LS mean (week 12): 6.37 mg/dL | triglycerides change from baseline, Mean (week 12): 2.90 mg/dL | triglycerides, Mean (week 12): 120.34 mg/dL | FPG change from baseline, LS mean difference (week 12, vs placebo): -32.26 mg/dL | HDL-C change from baseline, LS mean difference (week 12, vs placebo): 2.36 mg/dL | HOMA-IR change from baseline, LS mean difference (week 12, vs placebo): −1.72 | HOMA-β change from baseline, LS mean difference (week 12, vs placebo): 12.09 | HbA1c change from baseline, LS mean difference (week 12, vs placebo): −0.71 % p | LDL-C change from baseline, LS mean difference (week 12, vs placebo): -6.00 mg/dL | Odds ratio for achieving HbA1c<6.5% (week 12, vs placebo): 7.58 | Odds ratio for achieving HbA1c<7% (week 12, vs placebo): 6.53 | Odds ratio for achieving therapeutic response (week 12, vs placebo): 14.77 | UACR change from baseline, LS mean difference (week 12, vs placebo): -15.16 g/kg | UGCR change from baseline, LS mean difference (week 12, vs placebo): 51.21 mg/mg | adiponectin change from baseline, LS mean difference (week 12, vs placebo): 0.67 µg/mL | body weight change from baseline, LS mean difference (week 12, vs placebo): -1.66 kg | diastolic blood pressure change from baseline, LS mean difference (week 12, vs placebo): −2.33 mmHg | fasting C-peptide change from baseline, LS mean difference (week 12, vs placebo): -0.12 ng/mL | leptin change from baseline, LS mean difference (week 12, vs placebo): -3.17 ng/mL | systolic blood pressure change from baseline, LS mean difference (week 12, vs placebo): −3.06 mmHg | total cholesterol change from baseline, LS mean difference (week 12, vs placebo): -4.04 mg/dL | triglycerides change from baseline, LS mean difference (week 12, vs placebo): -10.37 mg/dL | Body weight, Mean (week 18): 65.32 kg | Diastolic blood pressure, Mean (week 18): 72.60 mmHg | FPG change from baseline, LS mean (SE) (week 18): −31.97(3.23) mg/dL | FPG change from baseline, Mean (SD) (week 18): −30.52(22.34) mg/dL | FPG, Mean (SD) (week 18): 110.48(14.49) mg/dL | HDL-C change from baseline, LS mean (week 18): 4.18 mg/dL | HDL-C change from baseline, Mean (week 18): 3.62 mg/dL | HDL-C, Mean (week 18): 55.55 mg/dL | HbA1c change from baseline, LS mean (SE) (week 18): −0.81(0.09) % p | HbA1c change from baseline, Mean (SD) (week 18): −0.77(0.67) % p
